Literature values in patent publication US20230143309A1, “PYRROLOBENZODIAZEPINE ANTIBODY CONJUGATES” (priority 2016, published 2023).

Assays:
[1] = test system: human tumour cell lines; details: for activity against a range of human tumour cell lines: quoted from UCL REF 2014 impact study
[2] = test system: human tumour xenograft models; details: quoted from UCL REF 2014 impact study

Row | SMILES | cytotoxicity relative to SG2057 (less cytotoxic) ([1]; Hartley et al 2012) | activity against a range of human tumour cell lines [1] | activity in human tumour xenograft models [2]
1 | C=C1C[C@H]2C=Nc3cc(OCCCOc4cc5c(cc4OC)C(=O)N4CC(=C)C[C@H]4C=N5)c(OC)cc3C(=O)N2C1 [SG2000] | at least 10 times |  | 
2 | C=C1C[C@H]2C=Nc3cc(OCCCCCOc4cc5c(cc4OC)C(=O)N4CC(=C)C[C@H]4C=N5)c(OC)cc3C(=O)N2C1 [SG2057] |  | picomolar/sub-picomolar activity | curative activity
3 | COc1ccc(C2=CN3C(=O)c4cc(OC)c(OCCCOc5cc6c(cc5OC)C(=O)N5C=C(c7ccc(OC)cc7)C[C@H]5C=N6)cc4N=C[C@@H]3C2)cc1 [SG2202] |  | picomolar/sub-picomolar activity | curative activity
